Results on five compounds are retold here after ChEMBL document CHEMBL1201862, “PubChem BioAssay data set” (2004).

Test systems include OVCAR-5; COLO 205; UACC-62; SK-MEL-5; BT-549; IGROV-1; TK-10; CCRF-CEM; UACC-257; EKVX; A498; 786-0; OVCAR-3; HCT-15; OVCAR-8; RXF 393; LOX IMVI; HOP-92; NCI-H522.
Common to all, as to test: NCI anticancer screen, dose series, 48 h

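The compound was tested at five concentrations on cells cultured in 96-well plates, with a 48-hour exposure period. Abbreviation: GI50, concentration required for 50% inhibition of growth.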 The source made the active and inactive calls. Rule as the data show it: active = GI50 up to about 1.1 µM and inactive = higher. Where only a bound is given, the exact number is not on record here.

Regarding `COC(=O)c1csc(-c2nc(CCNC(=O)OC(C)(C)C)sc2Br)n1`, the GI50 in the test with OVCAR-5, with COLO 205, in the test with UACC-62, in the test with SK-MEL-5, with BT-549 and in the test on IGROV-1 was > 100 µM (inactive) in each case. Also, the GI50 with TK-10, with CCRF-CEM, in the test on UACC-257, in the test on EKVX, with A498 and in the test with 786-0 was > 100 µM (inactive) in each case. For the same compound, the GI50 with OVCAR-3 is > 100 µM (inactive); in the test with HCT-15, more than 100 µM; with OVCAR-8 it was > 100 µM (inactive); with RXF 393, > 100 µM (inactive).
`Cc1ccc(/C=c2\c(=O)[nH]c3nc4ccccc4c(=O)n23)cc1`: the GI50 was > 100 µM (inactive) in the test on OVCAR-5; 18.3 µM (inactive) with COLO 205; 29.1 µM (inactive) with LOX IMVI; 33.5 µM (inactive) in the test on UACC-62; 21.6 µM (inactive) with BT-549; > 100 µM (inactive) in the test with TK-10. Besides, the GI50 in the test with CCRF-CEM is 30.7 µM (inactive); in the test on UACC-257 it was 70 µM (inactive); in the test on 786-0, 39.4 µM (inactive); with HOP-92, 55.2 µM (inactive); with OVCAR-3, 32.8 µM (inactive); in the test with HCT-15 it was 34.8 µM. Moreover, the values for the GI50 in the test with OVCAR-8, in the test on RXF 393 and in the test with NCI-H522 were 40.9 µM (inactive), 29.6 µM (inactive) and 29 µM (inactive), respectively.
`Cc1ccc(-c2nc3cc(Cl)ccc3[nH]2)cc1`: the GI50 with COLO 205 is 71.6 µM (inactive); in the test on LOX IMVI, > 100 µM (inactive); in the test on UACC-62, > 100 µM (inactive); in the test on SK-MEL-5, > 100 µM (inactive); with BT-549, > 100 µM (inactive); with IGROV-1, > 100 µM (inactive). In addition, the GI50 in the test on TK-10, in the test on CCRF-CEM, with UACC-257, in the test with EKVX, in the test on 786-0 and in the test on HOP-92 was > 100 µM (inactive) each time. Also, the GI50 was > 100 µM (inactive) with OVCAR-3; 80.5 µM in the test on HCT-15; > 100 µM (inactive) in the test on OVCAR-8; > 100 µM (inactive) in the test on RXF 393; 91.2 µM (inactive) in the test with NCI-H522.
Take `Cc1cc2ccccc2n1CC(=O)NCC(C)C`: the GI50 in the test with OVCAR-5, with COLO 205, with LOX IMVI, in the test on UACC-62, in the test on SK-MEL-5 and in the test with BT-549 was > 100 µM (inactive) in each case. Besides, the GI50 with IGROV-1, in the test with TK-10, in the test on CCRF-CEM, with UACC-257, in the test on EKVX and with 786-0 was > 100 µM (inactive) each time. Further, the GI50 with HOP-92 is > 100 µM (inactive); in the test on OVCAR-3, > 100 µM (inactive); with HCT-15 it was more than 100 µM; in the test on OVCAR-8 it was > 100 µM (inactive); with RXF 393, > 100 µM (inactive); in the test with NCI-H522, > 100 µM (inactive).
For the compound `CC(=O)C1C(=O)C(=O)N(c2ccc([N+](=O)[O-])cc2Cl)C1=O` (centres undefined), the GI50 with OVCAR-5, with COLO 205, in the test with LOX IMVI, in the test on UACC-62, with SK-MEL-5 and in the test on BT-549 was > 100 µM (inactive) each time. The GI50 in the test with IGROV-1, in the test with TK-10, in the test on CCRF-CEM, in the test with UACC-257, in the test with EKVX and in the test on 786-0 was > 100 µM (inactive) in each case. For the same compound, the GI50 in the test on HOP-92 is 56.6 µM (inactive); in the test with OVCAR-3 it was 94.2 µM (inactive); with HCT-15, more than 100 µM; in the test on OVCAR-8, > 100 µM (inactive); in the test with RXF 393 it was 97.9 µM (inactive); in the test with NCI-H522, > 100 µM (inactive).
